Laboratory results: ChEMBL document CHEMBL2151024, “Synthesis and Biological Evaluation of a Biotinylated Paclitaxel With an Extra-Long Chain Spacer Arm” (ACS Med Chem Lett, 2012)
Calls of active or inactive are those of the source. The rule behind the calls is not given here.

Key:
[1] = Stabilization of microtubule by fluorescence microscopy
Tubulin = Tubulin (Sus scrofa, UniProt P02554+P02550); experiment: Induction of porcine brain tubulin polymerization after 20 mins by Bradford assay
[2] = Stabilization of microtubule using Cy3-streptavidin-tagged compound by fluorescence microscopy

SMILES | Activity [1] | EC50 (Tubulin) [µM] | Activity [2]
CC(=O)O[C@H]1C(=O)[C@@]2(C)[C@H]([C@H](OC(=O)c3ccccc3)[C@]3(O)C[C@H](OC(=O)[C@H](O)[C@@H](NC(=O)c4ccccc4)c4ccccc4)C(C)=C1C3(C)C)[C@]1(OC(C)=O)CO[C@@H]1C[C@@H]2O [PACLITAXEL] | Active | 0.52 | 
CC(=O)O[C@H]1C(=O)[C@]2(C)[C@@H](OC(=O)CCNC(=O)CCCCCNC(=O)CCCCCNC(=O)CCCC[C@@H]3SC[C@@H]4NC(=O)N[C@@H]43)C[C@H]3OC[C@@]3(OC(C)=O)[C@H]2[C@H](OC(=O)c2ccccc2)[C@]2(O)C[C@H](OC(=O)[C@H](O)[C@@H](NC(=O)c3ccccc3)c3ccccc3)C(C)=C1C2(C)C | Active | 0.68 | Active
